Results reported in patent US12336991B2, “Factor XIIA inhibitors” (UNIVERSITY OF LEEDS, priority 2018, dated 2025).

Tests used:
Format in all cases: biochemical
thrombin = target: T1, thrombin (Homo sapiens, UniProt P00734); experiment: Determination of selectivity: thrombin inhibition, chromogenic substrate GPR assay; settings: fold selectivity for FXIIa over thrombin
T1 construct: FXa (5 nM) and thrombin (5 nM)
Procedure, shortened: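 Thrombin (5 nM) preincubated with compound 10 min at 37 °C in 50 mM Tris, 137 mM NaCl, pH 7.4, 5% DMSO, then GPR substrate ([…]) added. Absorbance at 405 nm read kinetically for 3 h; IC50 from initial rates, converted to Ki via Ki=IC50/(1+[S]/Km).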

FXIIa = target: T2, FXIIa (Homo sapiens, UniProt P00748); experiment: Determination of Factor XIIa inhibition, chromogenic substrate S-2302 assay; settings: human FXIIa alpha
T2 sequence (P00748 373-615 limits assumed): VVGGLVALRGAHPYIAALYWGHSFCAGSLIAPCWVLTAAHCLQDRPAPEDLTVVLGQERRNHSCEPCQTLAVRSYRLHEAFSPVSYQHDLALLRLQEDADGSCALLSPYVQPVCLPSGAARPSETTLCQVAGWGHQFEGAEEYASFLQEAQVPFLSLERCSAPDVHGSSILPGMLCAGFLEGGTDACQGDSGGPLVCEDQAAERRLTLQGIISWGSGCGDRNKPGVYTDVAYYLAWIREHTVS
T2 sequence (P00748 20-372 partner limits assumed): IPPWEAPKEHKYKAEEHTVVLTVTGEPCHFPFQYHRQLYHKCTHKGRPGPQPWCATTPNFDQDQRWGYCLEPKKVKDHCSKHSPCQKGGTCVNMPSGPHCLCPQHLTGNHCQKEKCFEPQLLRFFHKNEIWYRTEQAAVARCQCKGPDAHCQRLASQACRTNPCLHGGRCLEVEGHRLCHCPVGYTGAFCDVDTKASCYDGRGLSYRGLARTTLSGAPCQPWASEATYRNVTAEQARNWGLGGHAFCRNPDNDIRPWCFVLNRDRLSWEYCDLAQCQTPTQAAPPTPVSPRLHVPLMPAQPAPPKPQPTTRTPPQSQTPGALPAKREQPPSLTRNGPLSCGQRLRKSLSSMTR
Procedure, shortened: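 FXIIa (10 nM) preincubated with compound 10 min at 37° C. in 50 mM Tris, 137 mM NaCl pH 7.4, 5% DMSO, top concentration 500 μM, then S-2302 added ([…]). Absorbance at 405 nm read kinetically for 3 h; IC50 from initial rates, converted to Ki by Cheng-Prusoff.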

FXa = FXa (Homo sapiens, UniProt P00742); experiment: Determination of selectivity: FXa inhibition, chromogenic substrate S2765 assay; settings: fold selectivity for FXIIa over FXa
Sequence of FXa (P00742 235-488 limits assumed): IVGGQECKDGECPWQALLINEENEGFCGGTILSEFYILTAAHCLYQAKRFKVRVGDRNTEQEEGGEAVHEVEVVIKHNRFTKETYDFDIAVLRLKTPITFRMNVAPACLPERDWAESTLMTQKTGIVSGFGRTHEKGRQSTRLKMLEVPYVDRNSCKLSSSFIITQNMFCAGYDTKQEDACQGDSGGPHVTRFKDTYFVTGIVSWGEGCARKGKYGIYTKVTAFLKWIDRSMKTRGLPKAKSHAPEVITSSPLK
Sequence of FXa (P00742 41-179 partner limits assumed): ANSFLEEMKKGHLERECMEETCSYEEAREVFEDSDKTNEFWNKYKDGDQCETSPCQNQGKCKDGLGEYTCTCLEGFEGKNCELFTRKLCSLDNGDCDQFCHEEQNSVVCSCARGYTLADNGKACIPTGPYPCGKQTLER
Procedure, shortened: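 Human FXa (5 nM) preincubated with compound (top 500 μM, 5% DMSO) 10 min at 37 °C in 50 mM Tris, 137 mM NaCl pH 7.4, then S2765 ([…]) added; A405 kinetics over 3 h at 37 °C. IC50 from initial rates, converted to Ki via Cheng-Prusoff.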

## COc1ccc(C[C@@H]2C[C@@H](C(=O)NCc3cc4cnccc4[nH]3)N(C(=O)[C@H]3C[C@@H](c4cnn(C)c4)CN3)C2)cc1 [Example M00959]
thrombin
  Thrombin (human)/FXIIa alpha (human): +++ (fold selectivity values greater than 100)
FXIIa
  Ki: < 200 nM
FXa
  FXa (human)/FXIIa alpha (human): ∘∘∘

## COc1ccc(C[C@@H]2C[C@@H](C(=O)NCc3ccc4c(c3)nnn4C)N(C(=O)[C@H]3C[C@@H](C(=O)N4CCCC4)CCN3)C2)cc1 [Example M05490]
thrombin
  Thrombin (human)/FXIIa alpha (human): +++ (fold selectivity values greater than 100)
FXIIa
  Ki: < 200 nM
FXa
  FXa (human)/FXIIa alpha (human): ∘∘∘

## COc1ccc(C[C@@H]2C[C@@H](C(=O)NCc3ccc4c(c3)nnn4C)N(C(=O)[C@H]3CC(c4ccccc4F)CN3)C2)cc1 (stereo partly drawn) [Example M05377]
thrombin
  Thrombin (human)/FXIIa alpha (human): +++ (fold selectivity values greater than 100)
FXIIa
  Ki: 200 to 2000 nM
FXa
  FXa (human)/FXIIa alpha (human): ∘∘∘

## Cn1nccc1C[C@H]1C[C@@H](C(=O)NCc2ccc3c(c2)nnn3C)N(C(=O)[C@H](N)CCC(=O)N2CCCC2)C1 [Example M05294]
thrombin
  Thrombin (human)/FXIIa alpha (human): ++ (fold selectivity value of 10 to 100)
FXIIa
  Ki: 200 to 2000 nM
FXa
  FXa (human)/FXIIa alpha (human): ∘∘∘

## COc1ccc(C[C@@H]2C[C@@H](C(=O)NCc3ccc4c(c3)nnn4C)N(C(=O)[C@H](N)CCC(=O)N3CCCNCC3)C2)cc1 [Example M05461]
thrombin
  Thrombin (human)/FXIIa alpha (human): +++ (fold selectivity values greater than 100)
FXIIa
  Ki: < 200 nM
FXa
  FXa (human)/FXIIa alpha (human): ∘∘∘

## Cn1nnc2cc(CNC(=O)[C@@H]3C[C@@H](Cc4ccc(F)cc4F)CN3C(=O)[C@H](N)CCC(=O)N3CCCC3)ccc21 [Example M05235]
thrombin
  Thrombin (human)/FXIIa alpha (human): +++ (fold selectivity values greater than 100)
FXIIa
  Ki: < 200 nM
FXa
  FXa (human)/FXIIa alpha (human): ∘∘∘

## Cn1nnc2cc(CNC(=O)[C@@H]3C[C@@H](Cc4cccc(Br)c4)CN3C(=O)[C@H](N)CCC(=O)N3CCCC3)ccc21 [Example M05317]
thrombin
  Thrombin (human)/FXIIa alpha (human): +++ (fold selectivity values greater than 100)
FXIIa
  Ki: < 200 nM
FXa
  FXa (human)/FXIIa alpha (human): ∘∘∘

## Cn1nnc2cc(CNC(=O)[C@@H]3C[C@H](NCc4cccc(C(F)(F)F)c4)CN3C(=O)[C@H](N)CCc3ccccc3)ccc21 [Example M05159]
thrombin
  Thrombin (human)/FXIIa alpha (human): ++ (fold selectivity value of 10 to 100)
FXIIa
  Ki: > 2000 nM
FXa
  FXa (human)/FXIIa alpha (human): ∘∘

## COc1ccc(C[C@@H]2C[C@@H](C(=O)NCc3ccc4c(c3)nnn4C)N(C(=O)[C@H](N)CCC(=O)N3CCCC3(C)C)C2)cc1 [Example M05450]
thrombin
  Thrombin (human)/FXIIa alpha (human): +++ (fold selectivity values greater than 100)
FXIIa
  Ki: < 200 nM
FXa
  FXa (human)/FXIIa alpha (human): ∘∘∘

## Cn1nnc2cc(CNC(=O)[C@@H]3C[C@@H](Cc4cccc(Cl)c4)CN3C(=O)[C@H]3C[C@@H](c4ccccc4)CN3)ccc21 [Example M05335]
thrombin
  Thrombin (human)/FXIIa alpha (human): ++ (fold selectivity value of 10 to 100)
FXIIa
  Ki: > 2000 nM
FXa
  FXa (human)/FXIIa alpha (human): ∘∘

## Cc1ccc(CC[C@@H](N)C(=O)N2CCC[C@H]2C(=O)NCc2ccc(CN)cc2)cc1 [Example M00787]
thrombin
  Thrombin (human)/FXIIa alpha (human): + (fold selectivity values less than 10)
FXIIa
  Ki: > 2000 nM
FXa
  FXa (human)/FXIIa alpha (human): ∘∘

## COc1ccc(C[C@@H]2C[C@@H](C(=O)NCc3nc4cnccc4[nH]3)N(C(=O)[C@H](N)CCC(=O)N3CCCC3)C2)cc1 [Example M00973]
thrombin
  Thrombin (human)/FXIIa alpha (human): +++ (fold selectivity values greater than 100)
FXIIa
  Ki: > 2000 nM
FXa
  FXa (human)/FXIIa alpha (human): ∘∘∘

## COc1ccc(C[C@@H]2C[C@@H](C(=O)NCc3ccc4c(c3)nnn4C)N(C(=O)[C@H]3CC(c4ccc(Cl)cc4)CN3)C2)cc1 (stereo partly drawn) [Example M05346]
thrombin
  Thrombin (human)/FXIIa alpha (human): ++ (fold selectivity value of 10 to 100)
FXIIa
  Ki: > 2000 nM
FXa
  FXa (human)/FXIIa alpha (human): ∘∘

## Nc1nccc2cc(CNC(=O)[C@@H]3CCCN3C(=O)[C@H](N)CCc3ccccc3)ccc12 [Example M05237]
thrombin
  Thrombin (human)/FXIIa alpha (human): + (fold selectivity values less than 10)
FXIIa
  Ki: 200 to 2000 nM
FXa
  FXa (human)/FXIIa alpha (human): ∘∘

## Cn1nnc2cc(CNC(=O)[C@@H]3C[C@@H](c4ccccc4)CN3C(=O)[C@H](N)CCc3ccccc3)ccc21 [Example M05119, (2S,4S)-1-((R)-2-Amino-4-phenyl-butyryl)-4-phenyl-pyrrolidine-2-carboxylic acid (1-methyl-1H-benzotriazol-5-ylmethyl)-amide]
thrombin
  Thrombin (human)/FXIIa alpha (human): ++ (fold selectivity value of 10 to 100)
FXIIa
  Ki: > 2000 nM
FXa
  FXa (human)/FXIIa alpha (human): ∘∘

## Cn1nnc2cc(CNC(=O)[C@@H]3CC(Cc4ccnc(C(F)(F)F)c4)CN3C(=O)[C@H](N)CCC(=O)N3CCCC3)ccc21 (stereo partly drawn) [Example M05303]
thrombin
  Thrombin (human)/FXIIa alpha (human): ++ (fold selectivity value of 10 to 100)
FXIIa
  Ki: 200 to 2000 nM
FXa
  FXa (human)/FXIIa alpha (human): ∘∘∘

## Nc1nccc2cc(CNC(=O)[C@@H]3C[C@@H](Cc4cccc(Cl)c4)CN3C(=O)[C@H](N)CCC(=O)N3CCCC3)ccc12 [Example M05266]
thrombin
  Thrombin (human)/FXIIa alpha (human): + (fold selectivity values less than 10)
FXIIa
  Ki: 200 to 2000 nM
FXa
  FXa (human)/FXIIa alpha (human): ∘∘

## Cn1nnc2cc(CNC(=O)[C@@H]3C[C@@H](Cc4ccc5c(c4)OCO5)CN3C(=O)[C@H]3C[C@@H](c4ccccc4)CN3)ccc21 [Example M05390]
thrombin
  Thrombin (human)/FXIIa alpha (human): ++ (fold selectivity value of 10 to 100)
FXIIa
  Ki: 200 to 2000 nM
FXa
  FXa (human)/FXIIa alpha (human): ∘∘∘

## Cn1nnc2cc(CNC(=O)[C@@H]3C[C@@H](Cc4cccnc4)CN3C(=O)[C@H]3C[C@@H](c4ccccc4)CN3)ccc21 [Example M05338]
thrombin
  Thrombin (human)/FXIIa alpha (human): ++ (fold selectivity value of 10 to 100)
FXIIa
  Ki: > 2000 nM
FXa
  FXa (human)/FXIIa alpha (human): ∘∘

## Cn1nnc2cc(CNC(=O)[C@@H]3C[C@@](O)(c4ccc(F)c(F)c4)CN3C(=O)[C@H](N)CCc3ccccc3)ccc21 [Example M05128]
thrombin
  Thrombin (human)/FXIIa alpha (human): ++ (fold selectivity value of 10 to 100)
FXIIa
  Ki: > 2000 nM
FXa
  FXa (human)/FXIIa alpha (human): ∘∘

## COc1ccc(C[C@@H]2C[C@@H](C(=O)NCc3ccc4c(c3)nnn4C)N(C(=O)C3NCCc4cc(OC)ccc43)C2)cc1 (stereo partly drawn) [Example M05441]
thrombin
  Thrombin (human)/FXIIa alpha (human): +++ (fold selectivity values greater than 100)
FXIIa
  Ki: < 200 nM
FXa
  FXa (human)/FXIIa alpha (human): ∘∘∘

## COc1ccc(C[C@@H]2C[C@@H](C(=O)NCc3ccc4c(c3)nnn4C)N(C(=O)C3NCCc4cc(Cl)ccc43)C2)cc1 (stereo partly drawn) [Example M05430]
thrombin
  Thrombin (human)/FXIIa alpha (human): +++ (fold selectivity values greater than 100)
FXIIa
  Ki: 200 to 2000 nM
FXa
  FXa (human)/FXIIa alpha (human): ∘∘∘

## Cn1nnc2cc(CNC(=O)[C@@H]3CC(Cc4ccnc(F)c4)CN3C(=O)[C@H](N)CCC(=O)N3CCCC3)ccc21 (stereo partly drawn) [Example M05314]
thrombin
  Thrombin (human)/FXIIa alpha (human): ++ (fold selectivity value of 10 to 100)
FXIIa
  Ki: 200 to 2000 nM
FXa
  FXa (human)/FXIIa alpha (human): ∘∘∘

## Cn1nnc2cc(CNC(=O)[C@@H]3C[C@H](Cc4ccccc4)CN3C(=O)[C@H](N)CCC(=O)N3CCCC3)ccc21 [Example M05211, (2S,4S)-1-((R)-2-Amino-5-oxo-5-pyrrolidin-1-yl-pentanoyl)-4-benzyl-pyrrolidine-2-carboxylic acid (1-methyl-1H-benzotriazol-5-ylmethyl)-amide]
thrombin
  Thrombin (human)/FXIIa alpha (human): +++ (fold selectivity values greater than 100)
FXIIa
  Ki: 200 to 2000 nM
FXa
  FXa (human)/FXIIa alpha (human): ∘∘∘
